Test results: patent US20140005260A1 (TRI-SERVICE GENERAL HOSPITAL, priority 2012, published 2014)

How the values were obtained:
[1] = system: EGFR; assay: EGFR signaling in zebrafish embryos (EGFR dimers, EGFR phosphorylation, GSK3β); type: in vivo
[2] = system: zebrafish embryos; assay: Whole mount in situ hybridization (WISH) of snail, versican and cdh5 in zebrafish embryos; type: in vivo
Description: EGFR inhibitor AG 1478 (CalBiochem) was dissolved in DMSO and stocked as 1 mM at -20° C. […] Before use, the solution was re-dissolved at 65° C. for 1 h. In the control group, 100 embryos were placed in a 9 cm dish filled with a volume of 30 ml embryo medium containing 0.2 mM 1-phenyl-2-thio-urea (Sigma). […] Long-term treatment during 12-72 hpf included the specification stage of valve formation at 36-55 hpf and the invagination stage of valve formation at 55 hpf. Treatment during 12-48 hpf was used to examine the gene markers versican and cdh5 which expressed at the AVC. […] During mouse embryonic valve formation, Snail (Snail) in Snail family acts as the […] of cdh5 that inhibit the transcription of cdh5. […] WISH was performed as previously described (Nucleic Acids Res 2010; 38:4384-93). Riboprobe of cdh5 was prepared by cloning its partial DNA fragment, while riboprobe of versican was provided by […] (Nature 2003; 425:633-7). […] FIG. 7H).

[3] = system: S-vcanb; assay: Western blot of S-vcanb protein in zebrafish embryos; type: in vivo; conditions: treated embryos
[4] = system: JC cell; assay: MTT cell survival assay; type: cell-based, mouse; conditions: 24 hr
Description: (§1) […]. Data is represented as a percentage of the DMSO control (DMSO), which is set to 100% and is expressed as mean±SEM (n=3).
(§2) It is well known that the Versican V1 increases EGFR signaling. […]. […]. Cells were plated at a density of 1×10^4 per well in 96-well plates and incubated for 12-16 h to allow cells to adhere. After 24 h, 0.5 mg/mL 3-(4,5-dimethylthiazol-2-yl)-2,5-diphenyltetrazolium bromide (MTT; Sigma) was added, and the cells were incubated for 4 h. Following incubation, each well was added 100 μl of 10% SDS/0.01N HCl solution and shaking for 5 min. Then, the absorbance was measured at 570 nm. Results were representative of three independent experiments, each done in quintuplicate. […].

[5] = system: B16OVA; assay: MTT cell survival assay; type: cell-based, murine; conditions: 24 hr
Description: as §1, §2

[6] = system: zebrafish embryos Tg(cmlc2:HcRFP); assay: In vivo observation of cardiac valve development in zebrafish embryos by HGM/2PF
Description: The zebrafish AB strain, as well as transgenic lines Tg(cmlc2:HcRFP) and Tg(cmlc2:EGFP), were cultured as previously described. Heart formation was observed under fluorescent stereomicroscopy (MZ Leica). […] The excitation source was a femtosecond Cr:forsterite laser with an output wavelength of 1230 nm. Second harmonic generation (SHG) and third harmonic generation (THG; J Struct Biol. 2004 147: 19-30) were applied to observe valve development in transgenic zebrafish Tg(cmlc2:HcRFP) in vivo. RFP marked the myocardial cells, while THG (410 nm) marked all cells in yellow, and SHG (615 nm) marked the skeletal and cardiac muscles in green. Paraffin sectioning with Hematoxylin and Eosin (H&E) staining was also used to perform histochemical analysis of the heart.
EGFR inhibitor AG 1478 (CalBiochem) was dissolved in DMSO and stocked as 1 mM at −20° C. […] Before use, the solution was re-dissolved at 65° C. for 1 h. In the control group, 100 embryos were placed in a 9 cm dish filled with a volume of 30 ml embryo medium containing 0.2 mM 1-phenyl-2-thio-urea (Sigma). […] Long-term treatment during 12-72 hpf included the specification stage of valve formation at 36-55 hpf and the invagination stage of valve formation at 55 hpf. Treatment during 12-48 hpf was used to examine the gene markers versican and cdh5 which expressed at the AVC.
By using HGH/2 PF to examine the zebrafish embryos derived from transgenic line Tg(cmlc2:HcRFP), the dynamics of valve development in vivo could easily be observed. For example, at 48 hpf, there was a single layer of cells in the endocardium at the AVC (FIG. 1A). […] Finally, at 87 hpf, the elongated structure was protruding towards the ventricle (FIG. 1C).

[7] = system: JC cells; assay: Tumor growth in Balb/c mice after SC injection of treated JC cells; type: in vivo; conditions: tumors from treated JC cells, vs control group and Mitomycin C-treated group
Source text: […]. […] For each group of tumors, the average volume for 3 tumors is plotted. Bars=95% confidence intervals.
Balb/c mice were inoculated by SC injection into the flank with contorl-Mitomycin C- or Amiodarone-treated JC cells. Each group had 3 mice, which were assigned to experimental groups randomly. All the other mice were sacrificed 2 weeks after treatment. […].

[8] = system: B16OVA; assay: Versican V1, V2, Snail and E-cadherin protein level in treated cells; type: cell-based, murine; conditions: 15 μM for 24 hr
Source text: (§3) […]. […] […]. […] […].

[9] = system: B16OVA cells
Description: (§4) For wound healing assays, B16OVA, JC or 4T-1 cells (1×10^6) were seeded onto 6-well plates in DMEM/RPMI 1640 medium and maintained at 37° C. until they reached 95% confluence. The monolayer of cells was wounded by a sterile pipette tip to create a 1-mm cell-free path. Culture medium was removed and the samples were washed with PBS, followed by culturing in DMEM/RPMI 1640 medium with 10 μg/ml of the Mitomycin C. Cells were photographed under a low-magnification microscope. […] The distances between the wounding centre and the front of the migrating cells (vertical axis) were measured for statistical analysis. […] To determine cell migration in the absence of cell proliferation, Mitomycin C was used to block mitosis and thus allowed the analysis of cell migration in the absence of cell proliferation.

[10] = system: B16OVA; assay: Level of AKT, pAKT, ERK and p-ERK in treated cells; type: cell-based, murine; conditions: 15 μM, vs control cells
Source text: (§5) […]. The EGFR signaling regulates cell proliferation through activates EGFR's intrinsic kinase and leads to activation of several downstream intracellular signaling pathways, including rat sarcoma-MAPK kinase (MEK)-extracellular-related kinase (ERK) and phosphoinositide 3-kinase (PI3K)-Akt pathways. It was reported the opposing effects of V1 and V2 on cell proliferation. […] […].

[11] = system: 4T-1 cells; assay: Versican V1, V2, Snail and E-cadherin protein level in treated cells; type: cell-based, mouse; conditions: 15 μM for 24 hr
Source text: as §3

[12] = system: JC; assay: as above; type: cell-based, mouse; conditions: 15 μM for 24 hr
Source text: as §3

[13] = system: 4T-1 cells; assay: Level of AKT, pAKT, ERK and p-ERK in treated cells; type: cell-based, mouse; conditions: 15 μM, vs control cells
Source text: as §5

[14] = system: JC; assay: Level of AKT, pAKT, ERK and p-ERK in treated cells; type: cell-based, mouse; conditions: 15 μM, vs control cells
Source text: as §5

[15] = system: JC cells; conditions: Mitomycin C alone, 10 μg/ml
Description: as §4

[16] = system: Cdh5; assay: Western blot of Cdh5 protein in zebrafish embryos; type: in vivo; conditions: 1.5 ng injected at one cell stage, 72 hpf embryos
Description: Cdh5 antibody was used to detect the amount of Cdh5 protein expression by Western blot. The embryos were dechorionated and deyolked with two extra washing steps as described in Link et al. (BMC Dev Biol 2006; 6:1). Deyolked samples were dissolved in 2 μl of 2×SDS sample buffer for each embryo and incubated for 5 min at 95[…]. After full-speed centrifugation for 1 min in a microcentrifuge to remove insoluble particles, total proteins extracted from embryos were analyzed on a 12% SDS-PAGE gel, and Western blot analysis was performed (J Biol Chem 2011; 286:6855-64) using antiserum against mouse Cdh5 (15; 1:10,000). Anti-α-tubulin and anti-β-actin served as a protein loading control. Knockdown experiments were performed as follows: morpholino nucleic acid oligomers (MOs) were purchased from GeneTools (USA): vcana-MO ([…], SEQ ID NO: 1); s-vcanb-MO ([…], SEQ ID NO: 2); snai1b-MO ([…], SEQ ID NO: 3) (Development 134, 4073-4081, 2007); cdh5-MO ([…], SEQ ID NO: 4) (Developmental Dynamics. 2004. 231, 204-213; PloS One 2010. 5, e8807); troponin T2a, cardiac-MO (5′-[…]-3′, SEQ ID NO: 5) (Nat. Genet. 2002. 31, 106-110); and standard control-MO ([…], SEQ ID NO: 6). […]

## COc1cc2ncnc(Nc3cccc(Cl)c3)c2cc1OC [AG1478]
[1]; AG1478 treatment, 7 μM
  activity of GSK3β: increased significantly
  total level of GSK3β: unchanged
[2]; 7 μM, embryos at 55 to 72 hpf
  cdh5 expression at the heart field: ectopic expression
  snail1b expression: lost

## CCCCc1oc2ccccc2c1C(=O)c1cc(I)c(OCCN(CC)CC)c(I)c1 [Amiodarone]
[3]
  expression of S-vcanb protein: increased
[1]; 72 hpf treated embryos
  EGFR dimeration: increased
[1]; Amiodarone treated embryos
  activity of GSK3β: increased significantly
  total level of GSK3β: unchanged
[1]; treated embryos, dosage dependent manner
  phosphorylation of EGFR (Tyr-845): reduced
[4]; 15 μM
  cell survival (MTT): did not influence
[4]; 10˜30 μM
  cell survival (MTT): does not influence
[5]; 15 μM
  cell survival (MTT): did not influence
[5]; 10˜30 μM
  cell survival (MTT): does not influence
[6]; 15 μM during 12-48 hpf
  endocardial cells at the AVC: no difference between treated and untreated embryos
[6]; 15 μM during 12-72 hpf
  valve structure: only a small aggregation of cells were seen at the upper valve site
[6]; 15 μM during 12-87 hpf, compared to untreated embryos
  cellular aggregation at the valve region: almost no cellular aggregation at the valve region
[7]
  tumor growth: grew slower
[8]
  E-cadherin protein level: increased significantly
  Snail protein level: greatly reduced
  Versican V1 expression: reduced
[8]; vs control cells
  Versican V2 expression: increased
[9]; cells at a growing phase, vs control cells
  morphological change: appeared more stripe and spread out than control cells
[10]
  phosphorylated AKT: reduced greatly
  phosphorylated ERK42/44: reduced greatly
  total level of AKT: unchanged
  total level of ERK: unchanged
[11]
  E-cadherin protein level: increased significantly
  Snail protein level: greatly reduced
  Versican V1 expression: no difference
[11]; vs control cells
  Versican V2 expression: increased
[12]
  E-cadherin protein level: increased significantly
  Snail protein level: greatly reduced
  Versican V1 expression: reduced
[12]; vs control cells
  Versican V2 expression: increased
[13]
  phosphorylated AKT: reduced greatly
  phosphorylated ERK42/44: reduced greatly
  total level of AKT: unchanged
  total level of ERK: unchanged
[14]
  phosphorylated AKT: reduced greatly
  phosphorylated ERK42/44: reduced greatly
  total level of AKT: unchanged
  total level of ERK: unchanged
[2]; 15 μM, treated during 55-72 hpf, observed at 72 hpf
  snai1b mRNA expression at the AVC: lost and decreased or even disappeared
[2]; 72 hpf embryos
  vcana and s-vcanb expression at the heart field: induced
[2]; treated during 55-72 hpf, observed at 72 hpf
  snai1a mRNA expression in the heart: still was not expressed in the heart

## CO[C@@]12[C@H](COC(N)=O)C3=C(C(=O)C(C)=C(N)C3=O)N1C[C@@H]1N[C@@H]12 [Mitomycin C]
[9]; Mitomycin C alone, 10 μg/ml
  time course of wound closure: did not affect the time course of wound closure
[15]
  time course of wound closure: did not affect the time course of wound closure

## snail1b-MO: morpholino nucleic acid oligomer TTGACAAGA AATGAGCGTGGCATCT, SEQ ID NO: 3 (antisense TTGACAAGAAATGAGCGTGGCATCT; all phosphorodiamidate morpholino (PMO))
[16]
  expression of Cdh5 protein relative to wild-type: 1.5 fold
